The values below come from patent publication US20070039241A1, “Floatable granular substrate for culturing plant material” (GSF - Forschungszentrum fur Umwelt und Gesundheit, priority 2003, published 2007).

The test system of the data set is barley seedlings. Briefly: Heavy metal uptake of barley seedlings on floating culture substrate or agar substrate (ICP-MS of leaves and roots). The class given is in vivo, Hordeum vulgare cv. Barke. Conditions: for Concentration of heavy metal ions in barley seedlings, Shoot, Agar: grown on agar; for Concentration of heavy metal ions in barley seedlings, Shoot, Agar / Concentration of heavy metal ions in barley seedlings, Root, Floatable Substrate / Concentration of heavy metal ions in barley seedlings, Shoot, Floatable Substrate: 6 day old plants; for Concentration of heavy metal ions in barley seedlings, Root, Floatable Substrate / Concentration of heavy metal ions in barley seedlings, Shoot, Floatable Substrate: grown on floatable substrate; for Factor by which concentration in the roots was increased compared to shoot tissue: seedlings grown on floatable substrate. The procedure: MS-basal Medium or Hoagland's medium was supplemented with heavy metals as follows: stock solutions of Hg Cl2 (0.1 M) or Cd(NO3)2•4H2O (0.1 M) were applied to the autoclaved medium when it had cooled to about 55° C. such that final heavy metal-ion concentrations of 10, 20, 30 and 40 μM were obtained.
Agar culturing substrate was prepared by adding 1.5 wt/vol % agar (Sigma) to Hoagland's or MS-basal medium. After heating to 100° C., respective amounts of heavy metal salts were added when the medium had cooled down to […]. Then the mixture was poured into Phytotray II™ culture vessels (Sigma) and left to cool for subsequent use.
Barley caryopses prepared and seeded onto a floatable substrate layer as in Example 1. Alternatively, the caryopses were directly placed on culturing agar as described above.
Seedlings were grown as described, and leaves and roots of 6 day old plants were harvested and weighed to determine the fresh weight. Samples were shock-frozen in liquid nitrogen and stored at −80° C.
Total mercury and cadmium content of leaves and roots was determined by electrothermal vaporization inductively coupled plasma-mass spectrometry (Michalke et al., 1997).

On to `[Cl][Hg][Cl]` [Hg^2+, Hg Cl2], for which the “Factor by which concentration in the roots was increased compared to shoot tissue” value is 10. Besides, for the setting “added concentration 10 μM”, the “Concentration of heavy metal ions in barley seedlings, Shoot, Agar” value (from here on “Concentration of heavy metal ions … Agar”) turned out to be 62 µM; the “Concentration of heavy metal ions in barley seedlings, Root, Floatable Substrate” value (from here on “Concentration … Root, Floatable Substrate”) was determined as 697 µM; the “Concentration of heavy metal ions in barley seedlings, Shoot, Floatable Substrate” value (“Concentration … Shoot, Floatable Substrate” below) was determined as 54 µM. Further, under “added concentration 20 μM”, the “Concentration of heavy metal ions … Agar” value amounted to 171 µM; the “Concentration … Root, Floatable Substrate” value was 851 µM; the “Concentration … Shoot, Floatable Substrate” value stood at 144 µM. For the same compound, where the note is “added concentration 30 μM”, the “Concentration of heavy metal ions … Agar” value stood at 254 µM; the “Concentration … Root, Floatable Substrate” value came out at 2060 µM; the “Concentration … Shoot, Floatable Substrate” value worked out at 239 µM. For the setting “added concentration 40 μM”, the “Concentration of heavy metal ions … Agar” value came to 252 µM; the “Concentration … Root, Floatable Substrate” value came out at 2430 µM; the “Concentration … Shoot, Floatable Substrate” value turned out to be 296 µM.

With `O.O.O.O.O=[N+]([O-])[O-].O=[N+]([O-])[O-].[Cd+2]` [Cd^2+, Cd(NO3)2•4H2O], the “Factor by which concentration in the roots was increased compared to shoot tissue” value turned out to be 60. Further, under “added concentration 10 μM”, the “Concentration of heavy metal ions … Agar” value worked out at 15 µM; the “Concentration … Root, Floatable Substrate” value stood at 479 µM; the “Concentration … Shoot, Floatable Substrate” value is 4 µM. Moreover, for the setting “added concentration 20 μM”, the “Concentration of heavy metal ions … Agar” value was 21 µM; the “Concentration … Root, Floatable Substrate” value was 1270 µM; the “Concentration … Shoot, Floatable Substrate” value came to 27 µM. For the same compound, for the setting “added concentration 30 μM”, the “Concentration of heavy metal ions … Agar” value was found to be 41 µM; the “Concentration … Root, Floatable Substrate” value was found to be 1450 µM; the “Concentration … Shoot, Floatable Substrate” value worked out at 27 µM. For the setting “added concentration 40 μM”, the “Concentration of heavy metal ions … Agar” value worked out at 53 µM; the “Concentration … Root, Floatable Substrate” value stood at 2880 µM; the “Concentration … Shoot, Floatable Substrate” value turned out to be 59 µM.
